Experimental data taken from patent US6855687B2 (The Board of Regents The University of Texas System, priority 2000, dated 2005).
Read-outs that look alike come from different tables or passages of the source.

Biological target: thrombin receptor
Assay: Specific binding of 125I thrombin to rat chondrocytes (Scatchard analysis)
Experimental: Primary cultures of rat articular chondrocytes were isolated and prepared for in vitro analysis using established methods (see Kuettner, K E., et.al., J. Cell Biology 93: 743-750, 1982). Briefly, cartilage pieces were dissected from the shoulder of rats and the pieces were digested with trypsin for one hour and with collagenase for three hours in tissue culture medium (DMEM) at 37 C. with stirring. The cells were plated in flasks at high density (50,000 cells/cm sq.) and were culture in DMEM containing antibiotics an ascorbic acid at 37° C. in an atmosphere of 5% CO2.

Kd (Scatchard analysis, 125I thrombin, three separate experiments, read-out: affinity of very high affinity binding sites): 0.1 nM
Kd (summary statement of Example 1, read-out: apparent affinity (3000 sites)): ~0.1 nM
Substance: thrombin
